Measured values published in patent US9447377B2, “Endodermal cells from pluripotent cells” (priority 2011, dated 2016).

Assays:
Type in all cases: cell-based, murine
wt ES cells [1] = assay: Differentiation of wt ES cells towards Sox17+ cells under PPP chemical inhibition, immunofluorescence analysis; settings: immunofluorescence with anti-Sox17 antibody; serum-free KSR neural differentiation medium
Procedure: (§1) Wt murine or with a deletion of the gene coding for G6PD (G6pdΔ) embryonic stem (ES) cells have been differentiated following the method described in Fico et al. (Fico A et al., Stem Cells Dev 2008). Briefly, 48 h before the induction of the differentiation, the ES cells have been plated onto pre-gelatinized plates. On day 0, the cells have been dissociated, thus obtaining a single cell suspension, which have subsequently been plated onto gelatinized plates at a density of 1.500 cells/cm2. During the differentiation process, the culture medium has been changed every other day for the first 6 days, then daily. The culture medium used consists in the medium free from integrated Knockout Serum Replacement (KSR) serum, and contains knockout Dulbecco minimal essential medium, integrated with 15% KSR (Invitrogen), 2 mM glutamine, 100 U/ml penicillin/streptomycin, and 0.1 mM β-mercaptoethanol.
From 6 days of differentiation, the expression profiles of markers of undifferentiated cells and specific markers for the three germ layers have been analyzed by RT-PCR. The expression of Oct4 and Nanog, markers of undifferentiated ES cells, is detectable in both cell lines (FIG. 1A). […]

wt ES cells [2] = assay: Differentiation of wt ES cells in the presence of D-(−)-ribose; settings: 10 neural differentiation days
Procedure: as §1, with “[…]Δ)” for “(G6pdΔ)”, “β-mercaptoethanol. Heterozygous knock-out ES Pdg+/- cells for the phosphogluconate dehydrogenase (PDG) enzyme, the second enzyme present in the PPP, were exposed to the above-described differentiation procedure. These cells have reduced Pdg mRNA levels, and are not sensitive to oxidative stress. […] Furthermore, […]Δ cells were exposed to the same differentiation procedure, but in the presence of D-(-)-ribose. […]” for “β-mercaptoethanol.”

G6pdΔ cells [3] = assay: Quantitative (real-time) PCR of Sox17 mRNA in G6pdΔ cells differentiated in the presence of D-(−)-ribose; settings: normalized to GAPDH, 10 neural differentiation days in the presence of D-(−)-ribose
Procedure: as §1, with “FIG. 2: (A) RT-PCR analysis of the expression of different specific differentiation markers in wt and Pgd+/- cells on neural differentiation days 8 and 10. (B) QRT-PCR analysis of Sox17 expression in wt ES e […]Δ cells after 10 neural differentiation days in the presence of D-(-)-ribose. Wt” for “Wt”, “[…]Δ)” for “(G6pdΔ)”, “β-mercaptoethanol. Heterozygous knock-out ES Pdg+/- cells for the phosphogluconate dehydrogenase (PDG) enzyme, the second enzyme present in the PPP, were exposed to the above-described differentiation procedure. […]” for “β-mercaptoethanol.”

G6pdΔ cells [4] = assay: Differentiation of G6pdΔ cells towards pancreatic precursors, Real Time PCR of Pdx1 expression; settings: G6pdΔ cells on differentiation day 8, 4 day exposure
Procedure: as §1
The real-time PCR analysis was carried out with a Biorad CFX 96 Real time System apparatus using a SYBR Green PCR Master Mix (Biorad) and the protocol recommended by the manufacturer. The relative expression of the various genes was normalized by using GAPDH as the gene standard. The used oligos were:
G6pdΔ cells on differentiation day 8, that are already expressing Sox17, are exposed to Indolactam V, an inducer of the differentiation of endoderm precursors towards pancreatic precursors. […]

Q: How did the “induction of differentiation of wt ES cells towards Sox 17+ cells” value (wt ES cells [1]) turn out when `NC(=O)c1ccc(N)nc1` [AN, 6-aminonicotinamide] was run?
A: capable of inducing the differentiation of wt ES cells towards Sox 17+ cells

Q: `O=C[C@H](O)[C@H](O)[C@H](O)CO` [D-(−)-ribose] was tested. Which “variation in the differentiation of wt ES cells” value (wt ES cells [2]) did it give?
A: does not lead to any variation in the differentiation of wt ES cells

Q: And the “Sox17 mRNA levels in G6pdΔ cells” value (G6pdΔ cells [3])?
A: a reduction in Sox17 mRNA levels

Q: Which “induction of differentiation of wt ES cells towards Sox 17+ cells” value (wt ES cells [1]) does the source give for `C[C@]12CC[C@H](O)CC1=CC[C@@H]1[C@@H]2CC[C@]2(C)C(=O)CC[C@@H]12` [DHEA, dehydroepiandrosterone] here?
A: capable of inducing the differentiation of wt ES cells towards Sox 17+ cells

Q: `CC(C)[C@H]1C(=O)N[C@H](CO)Cc2c[nH]c3cccc(c23)N1C` [Indolactam V] was tested. Which “increase in the Pdx1 expression levels compared to control cells” value (G6pdΔ cells [4]) did it give?
A: about 2.5 times
